Reference: patent US8945540B2, “Compositions for enhancing the antibacterial activity of myeloperoxidase and methods of use thereof” (Exoxemis, Inc., priority 2008, dated 2015)
Like-named read-outs stand apart in the source and are kept apart here.

Tests used:
Staphylococcus aureus [1] = experiment: Microbicidal activity of the myeloperoxidase system (p-MPO, glucose oxidase, glucose) with amino acids in the presence of blood, CFU plate counts; synergy determination from these CFU; type: cell-based; conditions: for Average Viability CFU/ml 50 min / Log Reduction 50 min: MPO 4.7 U/ml, GO 4.2 U/ml
Outline: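 Microbicidal activity of the MPO–glucose oxidase–glucose system against S. aureus with amino acids was assessed in 3% whole blood. Reactions of 1 mL were run at room temperature or 37° C and stopped with catalase. Surviving CFU were counted on trypticase soy agar. For each pair, Actual CFU was divided by Predicted CFU and multiplied by 100. This value was compared with variability-based thresholds to classify synergism, antagonism or additivity.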

Staphylococcus aureus [2] = experiment: Control: microbicidal activity of the amino acid or analogue alone (no glucose, MPO, glucose oxidase) in the presence of blood; type: cell-based; conditions: for log reduction at 5000 µM: Staphylococcus aureus, 1 h, read-out: Log Reduction 60 min
From the text: As a control to determine the microbicidal activity of the amino acids alone, the foregoing procedure was followed without replication, except in the absence of glucose, MPO, and glucose oxidase.

[3] = L-lysine 5 mM, MPO 9 U/ml, GO 0.833 U/ml, 3% blood
[4] = L-lysine 5 mM, MPO 9 U/ml, GO 8.33 U/ml, 3% blood
[5] = L-lysine 5 mM, MPO 38 U/ml, GO 3.3 U/ml, 3% blood
[6] = L-lysine 5 mM, MPO 38 U/ml, GO 33.3 U/ml, 3% blood
[7] = L-lysine 20 mM, MPO 38 U/ml, GO 3.3 U/ml, 3% blood
[8] = L-lysine 20 mM, MPO 38 U/ml, GO 33.3 U/ml, 3% blood
[9] = L-lysine […], MPO 9 U/ml, GO 0.833 U/ml, 3% blood
[10] = L-lysine […], MPO 9 U/ml, GO 8.33 U/ml, 3% blood
[11] = MPO 100 μg/mL, AA 20 mM, 30 min
[12] = MPO 100 μg/mL, AA 20 mM, 60 min
[13] = Table 2, amino acid 5 mM (none: 0 mM), MPO 38 U/ml, GO 33.3 U/ml, blood
[14] = Table 10, single amino acid 2.5 mM, in the presence of blood
[15] = Table 11, single amino acid 2.5 mM, in the presence of blood
[16] = Table 13, single amino acid 2.5 mM, in the presence of blood
[17] = Table 14, single amino acid 2.5 mM, in the presence of blood
[18] = amino acid alone 5 mM, MPO 0, GO 0, no glucose, blood, without replication
[19] = Table 7, amino acid analogue 5 mM, MPO 38 U/ml, GO 33.3 U/ml, blood
[20] = amino acid analogue alone 5 mM, MPO 0, GO 0, no glucose, blood

NCCCC[C@H](N)C(=O)O [L-Lysine]
Average Viability CFU/ml 30 min (Staphylococcus aureus [1]; [3]): 775000 CFU/ml
Average Viability CFU/ml 60 min (Staphylococcus aureus [1]; [3]): 53000 CFU/ml
Log Reduction 30 min (Staphylococcus aureus [1]; [3]): 1.5
Log Reduction 60 min (Staphylococcus aureus [1]; [3]): 2.7
Average Viability CFU/ml 30 min (Staphylococcus aureus [1]; [4]): 675000 CFU/ml
Average Viability CFU/ml 60 min (Staphylococcus aureus [1]; [4]): 47 CFU/ml
Log Reduction 30 min (Staphylococcus aureus [1]; [4]): 1.6
Log Reduction 60 min (Staphylococcus aureus [1]; [4]): 5.7
Average Viability CFU/ml 30 min (Staphylococcus aureus [1]; [5]): 6050 CFU/ml
Average Viability CFU/ml 60 min (Staphylococcus aureus [1]; [5]): 770 CFU/ml
Log Reduction 30 min (Staphylococcus aureus [1]; [5]): 3.6
Log Reduction 60 min (Staphylococcus aureus [1]; [5]): 4.5
Average Viability CFU/ml 30 min (Staphylococcus aureus [1]; [6]): 7 CFU/ml
Average Viability CFU/ml 60 min (Staphylococcus aureus [1]; [6]): 3 CFU/ml
Log Reduction 30 min (Staphylococcus aureus [1]; [6]): 6.5
Log Reduction 60 min (Staphylococcus aureus [1]; [6]): 6.8
Average Viability CFU/ml 30 min (Staphylococcus aureus [1]; [7]): 6450 CFU/ml
Average Viability CFU/ml 60 min (Staphylococcus aureus [1]; [7]): 620 CFU/ml
Log Reduction 30 min (Staphylococcus aureus [1]; [7]): 3.6
Log Reduction 60 min (Staphylococcus aureus [1]; [7]): 4.6
Average Viability CFU/ml 30 min (Staphylococcus aureus [1]; [8]): 5 CFU/ml
Average Viability CFU/ml 60 min (Staphylococcus aureus [1]; [8]): 5 CFU/ml
Log Reduction 30 min (Staphylococcus aureus [1]; [8]): 6.6
Log Reduction 60 min (Staphylococcus aureus [1]; [8]): 6.6
Average Viability CFU/ml 30 min (Staphylococcus aureus [1]; [9]): 5050000 CFU/ml
Average Viability CFU/ml 60 min (Staphylococcus aureus [1]; [9]): 620000 CFU/ml
Log Reduction 30 min (Staphylococcus aureus [1]; [9]): 0.7
Log Reduction 60 min (Staphylococcus aureus [1]; [9]): 1.6
Average Viability CFU/ml 30 min (Staphylococcus aureus [1]; [10]): 6200000 CFU/ml
Average Viability CFU/ml 60 min (Staphylococcus aureus [1]; [10]): 4950 CFU/ml
Log Reduction 30 min (Staphylococcus aureus [1]; [10]): 0.6
Log Reduction 60 min (Staphylococcus aureus [1]; [10]): 3.7
Log 10 (CFU + 1) Survivors (Staphylococcus aureus [1]; MPO 25 μg/mL, AA 5 mM, 30 min): 5.8
Log 10 (CFU + 1) Survivors (Staphylococcus aureus [1]; MPO 25 μg/mL, AA 5 mM, 60 min): 1.6
Log 10 (CFU + 1) Survivors (Staphylococcus aureus [1]; MPO 25 μg/mL, AA […], 30 min): 6.8
Log 10 (CFU + 1) Survivors (Staphylococcus aureus [1]; MPO 25 μg/mL, AA […], 60 min): 3.7
Log 10 (CFU + 1) Survivors (Staphylococcus aureus [1]; MPO 100 μg/mL, AA 5 mM, 30 min): 0.9
Log 10 (CFU + 1) Survivors (Staphylococcus aureus [1]; MPO 100 μg/mL, AA 5 mM, 60 min): 0.5
Log 10 (CFU + 1) Survivors (Staphylococcus aureus [1]; [11]): 0.8
Log 10 (CFU + 1) Survivors (Staphylococcus aureus [1]; [12]): 0.8
Average Viability CFU/ml 60 min (Staphylococcus aureus [1]; [13]): 0 CFU/ml
Log 10 (CFU + 1) Survivors 60 min (Staphylococcus aureus [1]; [13]): 0.0
Log Reduction 60 min (Staphylococcus aureus [1]; [13]): 7.4
Average Viability CFU/ml 50 min (Staphylococcus aureus [1]; [14]): 16200000 CFU/ml
Log Reduction 50 min (Staphylococcus aureus [1]; [14]): 0.2
Average Viability CFU/ml 50 min (Staphylococcus aureus [1]; [15]): 18900000 CFU/ml
Log Reduction 50 min (Staphylococcus aureus [1]; [15]): 0.2
Average Viability CFU/ml 50 min (Staphylococcus aureus [1]; [16]): 11400000 CFU/ml
Log Reduction 50 min (Staphylococcus aureus [1]; [16]): 0.3
Average Viability CFU/ml 50 min (Staphylococcus aureus [1]; [17]): 16950000 CFU/ml
Log Reduction 50 min (Staphylococcus aureus [1]; [17]): 0.2
log reduction at 5000 µM (Staphylococcus aureus [2]): 0
Average Viability CFU/ml 60 min (Staphylococcus aureus [2]; [18]): 21400000 CFU/ml

CSCC[C@H](N)C(=O)O [L-Methionine]
Average Viability CFU/ml 60 min (Staphylococcus aureus [1]; [13]): 6600000 CFU/ml
Log 10 (CFU + 1) Survivors 60 min (Staphylococcus aureus [1]; [13]): 6.8
Log Reduction 60 min (Staphylococcus aureus [1]; [13]): 0.6
log reduction at 5000 µM (Staphylococcus aureus [2]; [18]): 0.1
Average Viability CFU/ml 60 min (Staphylococcus aureus [2]; [18]): 19800000 CFU/ml

N[C@@H](Cc1ccccc1)C(=O)O [L-Phenylalanine]
Log 10 (CFU + 1) Survivors (Staphylococcus aureus [1]; MPO 25 μg/mL, AA 5 mM, 30 min): 7.1
Log 10 (CFU + 1) Survivors (Staphylococcus aureus [1]; MPO 25 μg/mL, AA 5 mM, 60 min): 0.0
Log 10 (CFU + 1) Survivors (Staphylococcus aureus [1]; MPO 25 μg/mL, AA […], 30 min): 7.0
Log 10 (CFU + 1) Survivors (Staphylococcus aureus [1]; MPO 25 μg/mL, AA […], 60 min): 4.9
Log 10 (CFU + 1) Survivors (Staphylococcus aureus [1]; MPO 100 μg/mL, AA 5 mM, 30 min): 0.0
Log 10 (CFU + 1) Survivors (Staphylococcus aureus [1]; MPO 100 μg/mL, AA 5 mM, 60 min): 0.0
Log 10 (CFU + 1) Survivors (Staphylococcus aureus [1]; [11]): 0.0
Log 10 (CFU + 1) Survivors (Staphylococcus aureus [1]; [12]): 0.0
Average Viability CFU/ml 60 min (Staphylococcus aureus [1]; [13]): 0 CFU/ml
Log 10 (CFU + 1) Survivors 60 min (Staphylococcus aureus [1]; [13]): 0.0
Log Reduction 60 min (Staphylococcus aureus [1]; [13]): 7.4
Average Viability CFU/ml 50 min (Staphylococcus aureus [1]; [14]): 10550000 CFU/ml
Log Reduction 50 min (Staphylococcus aureus [1]; [14]): 0.4
Average Viability CFU/ml 50 min (Staphylococcus aureus [1]; [15]): 11100000 CFU/ml
Log Reduction 50 min (Staphylococcus aureus [1]; [15]): 0.4
Average Viability CFU/ml 50 min (Staphylococcus aureus [1]; [17]): 12050000 CFU/ml
Log Reduction 50 min (Staphylococcus aureus [1]; [17]): 0.3
Average Viability CFU/ml 50 min (Staphylococcus aureus [1]; Table 19, amino acid 3.5 mM): 11200000 CFU/ml
Log Reduction 50 min (Staphylococcus aureus [1]; Table 19, amino acid 3.5 mM): 0.4
log reduction at 5000 µM (Staphylococcus aureus [2]; [18]): 0
Average Viability CFU/ml 60 min (Staphylococcus aureus [2]; [18]): 22400000 CFU/ml

COC(=O)[C@@H]1CCCN1.Cl [L-Proline methyl ester hydrochloride]
Average Viability CFU/ml 60 min (Staphylococcus aureus [1]; [19]): 0 CFU/ml
Log Reduction 60 min (Staphylococcus aureus [1]; [19]): 7.4
log reduction at 5000 µM (Staphylococcus aureus [2]; [20]): 0
Average Viability CFU/ml 60 min (Staphylococcus aureus [2]; [20]): 23200000 CFU/ml
